≈ marks a conversion by molar mass, not a printed value. Like-named read-outs stand apart in the source and are kept apart here.
Tests used:
Type in all cases: cell-based
K. pneumoniae ATCC 10031 = assay: MIC (broth microdilution or agar dilution, CLSI); conditions: Klebsiella pneumoniae, ATCC10031, K. pneumoniae HAV#008, ATCC 10031; read-out: MIC
Description: (§1) Minimum inhibitory concentrations (MICs) were determined by broth microdilution method or agar dilution method following the Clinical and Laboratory Standards Institute guidelines. Standard bacterial strains were obtained from American Type Culture Collection (ATCC). Other bacterial strains were obtained from hospitals and commercial sources, so noted in Table 11. […] Specialized procedures were employed for streptococcal and anaerobic strains. All other bacterial strains were sub-cultured on blood agar plates (tryptic soy agar with 5% sheep blood, Hardy Diagnostics) and incubated overnight at 35° C. […] Suspensions were further diluted to obtain a final inoculum of 5×10^5 CFU/mL for broth microdilution experiments.

S. aureus ATCC 29213 = assay: MIC (broth microdilution or agar dilution, CLSI); conditions: Staphylococcus aureus, read-out: MIC
Description: as §1

A. baumannii ATCC 19606 = assay: MIC (broth microdilution or agar dilution, CLSI); conditions: Acinetobacter baumannii, ATCC19606, read-out: MIC
Description: as §1

[1] = system: E. faecalis MMX 847; cErmB; assay: MIC (broth microdilution or agar dilution, CLSI); conditions: Enterococcus faecalis; E. faecalis HAV#036, MMX 847; mac-resistant, cErmB; read-out: MIC
Description: as §1

S. pyogenes ATCC 19615 = assay: MIC (broth microdilution or agar dilution, CLSI); conditions: Streptococcus pyogenes, read-out: MIC
Description: as §1

H. influenzae ATCC 49247 = assay: MIC (broth microdilution or agar dilution, CLSI); conditions: Haemophilus influenzae, ATCC49247; H. influenzae HAV#007, ATCC 49247; read-out: MIC
Description: as §1

[2] = system: S. pneumoniae MMX 3031 cMefA; assay: MIC (broth microdilution or agar dilution, CLSI); conditions: Streptococcus pneumoniae, MMX3031CMEFA, S. pneumoniae HAV#034; MMX 3031, cMefA; read-out: MIC
Description: as §1

S. aureus MMX 3035 cErmA = assay: MIC (broth microdilution or agar dilution, CLSI); conditions: Staphylococcus aureus, MMX3035CERMA; S. aureus HAV#031, MMX 3035; cErmA; read-out: MIC
Description: as §1

S. pneumoniae ATCC 49619 = assay: MIC (broth microdilution or agar dilution, CLSI); conditions: Streptococcus pneumoniae, read-out: MIC
Description: as §1

[3] = system: S. aureus ATCC BAA-1707 (MRSA); assay: MIC (broth microdilution or agar dilution, CLSI); conditions: Staphylococcus aureus; S. aureus HAV#016, ATCC BAA-1707; MRSA; read-out: MIC
Description: as §1

[4] = system: S. pyogenes MMX 946; cErmB; assay: MIC (broth microdilution or agar dilution, CLSI); conditions: Streptococcus pyogenes; S. pyogenes HAV#035, MMX 946; cErmB, mac-resistant; read-out: MIC
Description: as §1

E. coli LptD = assay: MIC (broth microdilution or agar dilution, CLSI); conditions: Escherichia coli, read-out: MIC
Description: as §1

[5] = system: S. pneumoniae MMX 3028 cErmB; assay: MIC (broth microdilution or agar dilution, CLSI); conditions: Streptococcus pneumoniae, MMX3028CERMB; S. pneumoniae HAV#033; MMX 3028, cErmB; read-out: MIC
Description: as §1

E. coli ATCC 25922 = assay: MIC (broth microdilution or agar dilution, CLSI); conditions: Escherichia coli, ATCC25922, read-out: MIC
Description: as §1

E. faecalis ATCC 29212 = assay: MIC (broth microdilution or agar dilution, CLSI); conditions: Enterococcus faecalis, read-out: MIC
Description: as §1

S. aureus hVISA = assay: MIC (broth microdilution or agar dilution, CLSI); conditions: Staphylococcus aureus; S. aureus HAV#204, hVISA; read-out: MIC
Description: as §1

S. pneumoniae ATCC 6303 = assay: MIC (broth microdilution or agar dilution, CLSI); conditions: Streptococcus pneumoniae, ATCC6303; S. pneumoniae HAV#351, ATCC 6303; read-out: MIC
Description: as §1

K. oxytoca Clinical = assay: MIC (broth microdilution or agar dilution, CLSI); conditions: Klebsiella oxytoca, read-out: MIC
Description: as §1

E. coli ΔTolC = assay: microbe, parasite or virus in culture; conditions: Escherichia coli
Description: as §1

S. aureus BAA 977 iErmA = assay: microbe, parasite or virus in culture; conditions: Staphylococcus aureus, BAA-977 / MRSA
Description: as §1

E. coli armA = assay: microbe, parasite or virus in culture; conditions: Escherichia coli, E. coli HAV#056; Clinical, armA
Description: as §1

S. aureus MP-549 msrA = assay: microbe, parasite or virus in culture; conditions: Staphylococcus aureus, MP549MSRA; S. aureus HAV#032, MP-549; MSR(A)
Description: as §1

[6] = system: broad panel of different clinical isolates; assay: microbe, parasite or virus in culture
Description: as §1

E. faecium Clinical VRE = assay: MIC (broth microdilution or agar dilution, CLSI); conditions: Enterococcus faecium; E. faecium Clinical VRE; read-out: MIC
Description: (§2) Minimum inhibitory concentrations (MICs) were determined by broth microdilution method or agar dilution method following the Clinical and Laboratory Standards Institute guidelines. Standard bacterial strains were obtained from American Type Culture Collection (ATCC). Other bacterial strains were obtained from hospitals and commercial sources, so noted in Table 11. Before the start of the MIC experiment, standard and test compound stock solutions were prepared in dimethyl sulfoxide (DMSO, Aldrich D2650) at a stock concentration of 5,120 μg/mL. The compound concentration range typically employed for each experiment was 128-0.06 μg/mL (2.5% final DMSO concentration). Clindamycin was used as a comparator in all experiments and each experiment was performed in triplicate. Specialized procedures were employed for streptococcal and anaerobic strains. All other bacterial strains were sub-cultured on blood agar plates (tryptic soy agar with 5% sheep blood, Hardy Diagnostics) and incubated overnight at 35° C. Organisms were suspended in cation-adjusted Mueller-Hinton broth (CaMHB, BD 212322) and optical density was adjusted to 0.5 McFarland standard. Suspensions were further diluted to obtain a final inoculum of 5×10^5 CFU/mL for broth microdilution experiments.

S. aureus cErmA = assay: MIC (broth microdilution or agar dilution, CLSI); conditions: Staphylococcus aureus; S. aureus cErmA; read-out: MIC
Description: as §2

P. aeruginosa ATCC 27853 = assay: MIC (broth microdilution or agar dilution, CLSI); conditions: Pseudomonas aeruginosa, ATCC27853; P. aeruginosa ATCC 27853; read-out: MIC
Description: as §2

[7] = ATCC29213, S. aureus ATCC 29213
[8] = ATCC19615, S. pyogenes ATCC 19615
[9] = ATCC49619, S. pneumoniae ATCC 49619
[10] = ATCC29212, E. faecalis ATCC 29212

## CC[C@H]1OC(=O)[C@H](C)[C@@H](O[C@H]2C[C@@](C)(OC)[C@@H](O)[C@H](C)O2)[C@H](C)[C@@H](O[C@@H]2O[C@H](C)C[C@H](N(C)C)[C@H]2O)[C@](C)(O)C[C@@H](C)C(=O)[C@H](C)[C@@H](O)[C@]1(C)O [Erythromycin]
K. pneumoniae ATCC 10031
  MIC: 8 mg/L (≈ 10.9 µM)
S. aureus ATCC 29213; ATCC29213, S. aureus HAV#001, ATCC 29213, MP-549
  MIC: 0.5 mg/L (≈ 0.681 µM)
A. baumannii ATCC 19606; A. baumanii HAV#010, ATCC 19606
  MIC: 64 mg/L (≈ 87.2 µM)
[1]
  MIC: > 64 mg/L
S. pyogenes ATCC 19615; ATCC19615, S. pyogenes HAV#004, ATCC 19615
  MIC: < 0.06 mg/L
H. influenzae ATCC 49247
  MIC: 8 mg/L (≈ 10.9 µM)
[2]
  MIC: 8 mg/L (≈ 10.9 µM)
S. aureus MMX 3035 cErmA
  MIC: > 64 mg/L
S. pneumoniae ATCC 49619; ATCC49619, S. pneumoniae HAV#003, ATCC 49619
  MIC: ≤ 0.06 mg/L
[3]
  MIC: 0.5 mg/L (≈ 0.681 µM)
[4]
  MIC: > 64 mg/L
E. coli LptD; E. coli HAV#040, LptD
  MIC: 1 mg/L (≈ 1.36 µM)
[5]
  MIC: > 64 mg/L
E. coli ATCC 25922; E. coli HAV#006, ATCC 25922
  MIC: 64 mg/L (≈ 87.2 µM)
E. faecalis ATCC 29212; ATCC29212, E. faecalis HAV#005, ATCC 29212
  MIC: 2 mg/L (≈ 2.73 µM)
S. aureus hVISA
  MIC: > 64 mg/L
S. pneumoniae ATCC 6303
  MIC: 0.5 mg/L (≈ 0.681 µM)
K. oxytoca Clinical; K. oxytoca HAV#450, Clinical
  MIC: > 64 mg/L
E. coli ΔTolC; E. coli HAV#038, ΔTolC
  MIC: 4 mg/L (≈ 5.45 µM)
S. aureus BAA 977 iErmA
  MIC: > 64 mg/L
E. coli armA
  MIC: 32 mg/L (≈ 43.6 µM)
S. aureus MP-549 msrA
  MIC: 64 mg/L (≈ 87.2 µM)
[6]; Enterococcus faecalis, VRE, E. faecalis HAV#251, Clinical VRE
  MIC: > 64 mg/L
[6]; Escherichia coli, E. coli HAV#501, Clinical
  MIC: > 64 mg/L
[6]; Klebsiella pneumoniae, K. pneumoniae HAV#041, Clinical, KPC
  MIC: > 64 mg/L
[6]; Staphylococcus aureus, MRSA, S. aureus HAV#017, MRSA Col(Colindale, England)
  MIC: 0.5 mg/L (≈ 0.681 µM)
[6]; Staphylococcus aureus, S. aureus HAV#216, Clinical, cfr
  MIC: 32 mg/L (≈ 43.6 µM)
[6]; Staphylococcus aureus, S. aureus HAV#217, cfr
  MIC: 64 mg/L (≈ 87.2 µM)
[6]; Staphylococcus aureus, VISA, S. aureus HAV#203, Clinical (VISA)
  MIC: > 64 mg/L
[6]; Staphylococcus epidermidis, S. epidermidis HAV# 275 Clinical, cfr
  MIC: 8 mg/L (≈ 10.9 µM)
[6]; Staphylococcus epidermidis, S. epidermidis HAV# 276, cfr
  MIC: > 128 mg/L

## CSC1O[C@H]([C@H](NC(=O)[C@H]2NC[C@@H]3C[C@H](CCF)CCO[C@H]32)[C@H](C)Cl)C(O)[C@@H](O)[C@H]1O (stereo partly shown) [FSA-10-09-099]
S. aureus ATCC 29213; [7]
  MIC: 0.25 mg/L (≈ 0.515 µM)
A. baumannii ATCC 19606; A. baumannii ATCC 19606
  MIC: > 128 mg/L
S. pyogenes ATCC 19615; [8]
  MIC: 0.5 mg/L (≈ 1.03 µM)
S. pneumoniae ATCC 49619; [9]
  MIC: 0.25 mg/L (≈ 0.515 µM)
E. coli LptD; E. coli LptD
  MIC: 4 mg/L (≈ 8.25 µM)
E. coli ATCC 25922; E. coli ATCC 25922
  MIC: 32 mg/L (≈ 66 µM)
E. faecalis ATCC 29212; [10]
  MIC: 0.5 mg/L (≈ 1.03 µM)
K. oxytoca Clinical; K. oxytoca Clinical
  MIC: 32 mg/L (≈ 66 µM)
E. coli ΔTolC; E. coli ΔTolC
  MIC: 1 mg/L (≈ 2.06 µM)
E. faecium Clinical VRE
  MIC: 16 mg/L (≈ 33 µM)
S. aureus cErmA
  MIC: 32 mg/L (≈ 66 µM)
P. aeruginosa ATCC 27853
  MIC: > 128 mg/L

## CSC1O[C@H]([C@H](NC(=O)[C@H]2NC[C@@H]3C[C@H](CC4CC4)CCO[C@H]32)[C@H](C)Cl)C(O)[C@@H](O)[C@H]1O (stereo partly shown) [FSA-10-10-001]
S. aureus ATCC 29213; [7]
  MIC: 0.125 mg/L (≈ 0.254 µM)
A. baumannii ATCC 19606; A. baumannii ATCC 19606
  MIC: 16 mg/L (≈ 32.5 µM)
S. pyogenes ATCC 19615; [8]
  MIC: 0.125 mg/L (≈ 0.254 µM)
S. pneumoniae ATCC 49619; [9]
  MIC: 0.125 mg/L (≈ 0.254 µM)
E. coli LptD; E. coli LptD
  MIC: 0.5 mg/L (≈ 1.01 µM)
E. coli ATCC 25922; E. coli ATCC 25922
  MIC: 4 mg/L (≈ 8.11 µM)
E. faecalis ATCC 29212; [10]
  MIC: 0.06 mg/L (≈ 0.122 µM)
K. oxytoca Clinical; K. oxytoca Clinical
  MIC: 8 mg/L (≈ 16.2 µM)
E. coli ΔTolC; E. coli ΔTolC
  MIC: 0.25 mg/L (≈ 0.507 µM)
E. faecium Clinical VRE
  MIC: 2 mg/L (≈ 4.06 µM)
S. aureus cErmA
  MIC: 4 mg/L (≈ 8.11 µM)
P. aeruginosa ATCC 27853
  MIC: > 128 mg/L

## CC[C@@H]1CCO[C@@H]2[C@H](CN[C@@H]2C(=O)N[C@H]([C@H](C)Cl)[C@H]2OC(SC)[C@H](O)[C@H](O)C2O)C1 (stereo partly shown) [FSA-10-10-012]
S. aureus ATCC 29213; [7]
  MIC: 0.125 mg/L (≈ 0.268 µM)
A. baumannii ATCC 19606; A. baumannii ATCC 19606
  MIC: 32 mg/L (≈ 68.5 µM)
S. pyogenes ATCC 19615; [8]
  MIC: 0.125 mg/L (≈ 0.268 µM)
S. pneumoniae ATCC 49619; [9]
  MIC: 0.125 mg/L (≈ 0.268 µM)
E. coli LptD; E. coli LptD
  MIC: 2 mg/L (≈ 4.28 µM)
E. coli ATCC 25922; E. coli ATCC 25922
  MIC: 16 mg/L (≈ 34.3 µM)
E. faecalis ATCC 29212; [10]
  MIC: 0.25 mg/L (≈ 0.535 µM)
K. oxytoca Clinical; K. oxytoca Clinical
  MIC: 16 mg/L (≈ 34.3 µM)
E. coli ΔTolC; E. coli ΔTolC
  MIC: 0.5 mg/L (≈ 1.07 µM)
E. faecium Clinical VRE
  MIC: 8 mg/L (≈ 17.1 µM)
S. aureus cErmA
  MIC: 8 mg/L (≈ 17.1 µM)
P. aeruginosa ATCC 27853
  MIC: > 128 mg/L

From US20230203081A1, “LINCOSAMIDE ANTIBIOTICS AND USES THEREOF” (President and Fellows of Harvard College, priority 2020, published 2023)
